Laboratory results published in patent US20210388319A1, “EXPANSION OF HEMATOPOIETIC STEM CELLS” (Mesoblast International Sarl, priority 2018, published 2021).

Tests used:
[1] = test system: CB CD34+ cells (cord blood derived CD34+ HSCs); test: Co-culture of cord blood CD34+ cells with MPCs and small molecules, 4-colour flow cytometric analysis; format: cell-based, human; settings: for expansion of CD34+ cells with the primitive HSC phenotype CD34+CD45RA− CD90+CD49f+: day 10, presence of MPCs and HDACi versus absence of MPCs or a HDACi (FIG. 9)
Protocol: • Cells: CB CD34+ (Stem Cell Technologies) • Medium: StemSpan SFEM (StemCell Technologies) supplemented with: • Human low density lipoprotein (Stem Cell Technologies) 10 μg/ml • Growth Factors (‘SFT’): • rHu-SCF 100 ng/ml • rHu-FLT3Ligand 100 ng/ml • rHu-TPO 50 ng/ml • (All recombinant cytokines are from R&D Systems) • Small Molecules: • SR1 (500 nM); UM171 (35 nM); Trichostatin A (TSA, 50 nM); Valproic Acid (VPA, 500 μM) (all from Stem Cell Technologies) • Assay conditions: • Day −1 MPC (MCBCC006) plated at 50,000/well in 2×24-well plates in Alpha-MEM/10% FBS • Day 0 10,000 CD34+ cells per well plated into each well of two 24 well plates. MPC containing wells were first washed to remove FBS medium. • The remaining CD34+ cells were cultured at the same concentration in a T-25 flask in StemSpan/SFT/SR-1+ UM171. This was to provide bulk cells for set up of flow cytometry analysis and to define electronic compensation settings for multicolour analysis. • Day 3 All groups were fed by removing 1.5 mL of media and replacing with 2.0 mL of fresh media+additives. • Day 5 Flow cytometric analysis: 1.5 mL of culture media was harvested from each well. For the suspension (No MPG) groups this was achieved by first aspirating the medium up and down to completely suspend the CD34+ cells before removing 1.5 mL of the suspension. For the +MPG groups, the CD34+ cells were resuspended in such a way that the MPC feeder layer was left intact. After the cells were removed from each well, they were replaced with 2.0 mL of fresh media+additives. A cell count was performed on all wells. This was required to determine not only the incidence of populations identified by FACS analysis, but also their absolute number. • Day 8 All groups were fed by removing 2.0 mL of media and replacing with 2.0 mL of fresh media and additives. • Day 10 Flow cytometric analysis: The complete content of each well was harvested. For the suspension (No MPG) groups this was achieved by first aspirating the medium up and down to completely suspend the CD34+ cells before removing the suspension. For the +MPG groups, the CD34+ cells in suspension were first harvested (as described above for Day 5). CD34+ cells attached to the MPC layer were then detached by a brief exposure (5 mins) to 0.05% trypsin-EDTA in PBS at 37° C., the trypsin quenched in 10% FBS and the detached cells pooled with the previously harvested suspension fraction to represent the Day 10 harvest.
A 4-colour flow cytometric analysis was performed to allow identification and quantitation of CD34+ cells and relevant subpopulations including candidate hematopoietic stem cells (HSC) according to the phenotype CD34+CD45RA− CD90+CD49f+ described for cord blood (Notta et al., (2011) Science 333: 218-221). All antibody conjugates were used at concentrations recommended by the manufacturers.
As noted above, the bulk culture of CD34+ cells in StemSpan/SFT/SR-1+ UM171 was used at both Day 5 and Day 10 to establish settings for flow cytometric analysis and to establish compensation settings. Stains with the following antibody/antibody combinations were performed:
Cord blood derived CD34+ HSCs were cultured in the presence and absence of immunoselected MPCs in the presence of: […]

[2] = test system: CD34+CD38-CD45RA− CD90+CD49f+ cells; test: Colony-forming unit (CFU) assay in MethoCult H4435 Enriched of FACS-isolated cells; format: cell-based, human; settings: cells isolated by FACS after 10 days in co-culture with MPCs, SFV and VPA; colonies scored on day 14
Protocol: FIG. 11: CD34+CD38-CD45RA− CD90+CD49f+ cells isolated by FACS were cultured in MethoCult™ H4435 Enriched (Stem cell Technologies), and tested for colony forming efficiency on day 14 of culture. Overall colony forming efficiency was 0.42%.
CD34+CD38-CD45RA− CD90+CD49f+ cells were isolated by FACS after 10 days in co-culture with MPCs, SFV and VPA. These isolated cells were then cultured in MethoCult™ H4435 Enriched (Stem cell Technologies), which is a complete methylcellulose-based medium containing IL-3, IL-6, G-CSF, GM-CSF, SCF and EPO and useful for growth and enumeration of hematopoietic progenitor cells in colony-forming unit (CFU) assays). Colonies were scored on day 14 of culture and tested for colony forming efficiency. […] Overall colony forming efficiency was 0.42%.

SMILES	expansion of CD34+ cells with the primitive HSC phenotype CD34+CD45RA− CD90+CD49f+ [1]	number of CD34+CD45RA− CD90+CD49f+ cells ([1]; after 10 days in co-culture with MPCs, SFV and VPA (500 μM), start about 500 primitive cells)	number of CD34+ cells ([1]; after 10 days in co-culture with MPCs, SFV and VPA (500 μM), start about 10,000 CD34+ cells)	increase in the number of CD34+CD90+CD49f+ cells ([1]; over a 10 day period, co-culture with MPCs, SFV and VPA) [fold]	overall colony forming efficiency [2] [%]
CC(/C=C/C(=O)NO)=C\[C@@H](C)C(=O)c1ccc(N(C)C)cc1 [TSA, Trichostatin A]	substantially greater expansion				
CCCC(CCC)C(=O)O [VPA, Valproic Acid]	substantially greater expansion	about 22,000 cells	about 800,000 cells	~44	0.42
